# Literature values in patent US20030211175A1, “Methods and compositions for dietary supplements” (priority 2002, published 2003).
substance,measurement,setting,value
Chromium picolinate,reducing an elevated blood glucose level,human,moderately effective
same,toxicity,in vivo,considerable toxicity
